Starred links: 1 amine or outer side, 2 acyl side, 3 side chain; linkers in the order of their positions; H or OH if unused. Non-standard residues stand in square brackets, D forms with d. Residues, ends and D or L forms follow the SMILES beside them. *: point of attachment. C20 diacid = O=C(O)CCCCCCCCCCCCCCCCCCC(=O)*; C16 diacid = O=C(O)CCCCCCCCCCCCCCC(=O)*; γGlu = O=C(O)[C@H](CCC(=O)[*:2])N[*:1]; Hyp = O=C(O)[C@@H]1C[C@@H](O)CN1; NMeN = CN[C@@H](CC(N)=O)C(=O)O
Key:
[1] = Heat accelerated stability assay, 40° C., detection on 10 d and 20 d; format: physicochemical; settings: 1 mg/mL, pH about 7.4, 40° C.
Procedure: The derivatives (1 mg/mL) were mixed with sodium dihydrogen phosphate (1.42 mg/mL) and dissolved in ultrapure water. After adjusting pH to about 7.4 with hydrochloric acid/sodium hydroxide, the solution was filtered into a sterilized vial in a clean bench using a 0.22 μm sterile filter. The vial was then capped and placed into the stability test chamber at 40° C. Detections were made on 10d and 20d, and during the assay changes in the characteristics and properties of the polypeptides were observed and recorded. The sample was then centrifuged for 3 min at 10000 rpm at 4° C., and the supernatant was transferred to a liquid phase sample vial for detecting the concentration and purity of the polypeptides using liquid phase chromatography described as below.
Flow rate: 1.0 mL/min; Autosampler temperature: 25° C.; Column temperature: 25° C.; Detection wavelength: 214 nm; Mobile phase A: 110 mM phosphate buffer (pH 5.8): ACN=90:10; Mobile phase B: ACN: IPA: H2O=85:5:10; and Gradient of elution listed in Table 6: […]

[2] = target: T1, human amylin receptors (Homo sapiens, UniProt O60896+P30988); experiment: Luciferase assay in stably transfected amylin receptor/CRE-luc CHO cell line; format: cell-based; settings: for Relative activity: EC50 ratio of Cagrilintide to the compound, Cagrilintide 100%; for EC50: amylin receptor/CRE-luc CHO cells, 24 hours incubation, luminescence
T1 construct: host or cells: CHO-K1/Ga15/AMY3 cells, further stably transfected with a CRE-luciferase plasmid
T1 sequence (P30988 25-474): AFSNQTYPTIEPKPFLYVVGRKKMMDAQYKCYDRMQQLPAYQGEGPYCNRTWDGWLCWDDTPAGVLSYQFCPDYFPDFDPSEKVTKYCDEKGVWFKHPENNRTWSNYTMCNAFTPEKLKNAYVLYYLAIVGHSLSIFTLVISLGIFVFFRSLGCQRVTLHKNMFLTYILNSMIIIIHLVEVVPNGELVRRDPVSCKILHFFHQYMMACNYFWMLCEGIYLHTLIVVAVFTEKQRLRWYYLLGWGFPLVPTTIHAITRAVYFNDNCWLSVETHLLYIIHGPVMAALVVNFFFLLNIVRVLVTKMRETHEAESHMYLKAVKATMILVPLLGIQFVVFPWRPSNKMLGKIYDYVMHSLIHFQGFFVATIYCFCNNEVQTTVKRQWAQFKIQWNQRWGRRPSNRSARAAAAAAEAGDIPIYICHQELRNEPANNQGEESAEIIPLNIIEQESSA
T1 sequence (O60896 24-148 partner): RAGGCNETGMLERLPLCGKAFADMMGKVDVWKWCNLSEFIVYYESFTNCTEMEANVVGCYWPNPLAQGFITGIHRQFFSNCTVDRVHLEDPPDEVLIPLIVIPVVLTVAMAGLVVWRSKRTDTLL

[3] = target: T2, human amylin receptor on CHO-K1/Ga15/AMY3 cells (amylin receptor/CRE-luc cell line) (human) (UniProt P30988); experiment: cell-based or functional assay
T2 sequence (looked up) 1: T1 sequence (P30988 25-474)
T2 sequence (looked up) 2: T1 sequence (O60896 24-148 partner)

Molecule: CC[C@H](C)[C@H](NC(=O)[C@@H]1CCCN1C(=O)[C@H](CCCCN)NC(=O)[C@H](CC(C)C)NC(=O)[C@H](CC(N)=O)NC(=O)[C@H](C)NC(=O)[C@H](CO)NC(=O)[C@H](CO)NC(=O)[C@H](Cc1c[nH]cn1)NC(=O)[C@H](CCCNC(=N)N)NC(=O)[C@H](CC(C)C)NC(=O)[C@H](Cc1ccccc1)NC(=O)[C@H](CC(=O)O)NC(=O)[C@H](C)NC(=O)[C@H](CC(C)C)NC(=O)[C@H](CCCNC(=N)N)NC(=O)[C@H](CCC(N)=O)NC(=O)[C@@H](NC(=O)[C@H](C)NC(=O)[C@H](C)NC(=O)[C@@H](NC(=O)[C@H](CO)NC(=O)[C@H](CC(C)C)NC(=O)[C@H](CCC(N)=O)NC(=O)[C@H](CO)NC(=O)[C@H](C)NC(=O)CC[C@H](NC(=O)CCCCCCCCCCCCCCCCCCC(=O)O)C(=O)O)[C@@H](C)O)[C@@H](C)O)C(=O)N[C@@H](CC(C)C)C(=O)N1CCC[C@H]1C(=O)N1CCC[C@H]1C(=O)N[C@H](C(=O)N[C@@H](CC(N)=O)C(=O)N[C@H](C(=O)NCC(=O)N[C@@H](CO)C(=O)N[C@@H](CC(N)=O)C(=O)N[C@H](C(=O)N1C[C@H](O)C[C@H]1C(N)=O)[C@@H](C)O)C(C)C)[C@@H](C)O [M50] ({C20 diacid-γGlu}-ASQLSTAATQRLADFLRHSSANLKPILPPTNVGSNT[Hyp]-NH2)
- Reduction in purity, 10 d [1]: 7.76%
- Reduction in purity, 20 d [1]: 14.46%
- Relative activity [2]: 186%
- EC50 [2]: 0.07 nM

Molecule: CC[C@H](C)[C@H](NC(=O)[C@@H]1CCCN1C(=O)[C@H](CCCCN)NC(=O)[C@H](CC(C)C)NC(=O)[C@H](CC(N)=O)NC(=O)[C@H](CCCNC(=N)N)NC(=O)[C@H](CO)NC(=O)[C@H](CO)NC(=O)[C@H](Cc1c[nH]cn1)NC(=O)[C@H](CCCNC(=N)N)NC(=O)[C@H](CC(C)C)NC(=O)[C@H](Cc1ccccc1)NC(=O)[C@H](CC(=O)O)NC(=O)[C@H](C)NC(=O)[C@H](CC(C)C)NC(=O)[C@H](CCCNC(=N)N)NC(=O)[C@H](CCC(N)=O)NC(=O)[C@@H](NC(=O)[C@H](C)NC(=O)[C@H](C)NC(=O)[C@@H](NC(=O)[C@H](CO)NC(=O)[C@H](CC(C)C)NC(=O)[C@H](CCC(N)=O)NC(=O)[C@H](CO)NC(=O)[C@H](C)NC(=O)CC[C@H](NC(=O)CCCCCCCCCCCCCCCCCCC(=O)O)C(=O)O)[C@@H](C)O)[C@@H](C)O)C(=O)N[C@@H](CC(C)C)C(=O)N1CCC[C@H]1C(=O)N1CCC[C@H]1C(=O)N[C@H](C(=O)N[C@@H](CC(N)=O)C(=O)N[C@H](C(=O)NCC(=O)N[C@@H](CO)C(=O)N[C@@H](CC(N)=O)C(=O)N[C@H](C(=O)N1C[C@H](O)C[C@H]1C(N)=O)[C@@H](C)O)C(C)C)[C@@H](C)O [M54] ({C20 diacid-γGlu}-ASQLSTAATQRLADFLRHSSRNLKPILPPTNVGSNT[Hyp]-NH2)
- Reduction in purity, 10 d [1]: 11.67%
- Reduction in purity, 20 d [1]: 20.56%
- Relative activity [2]: 267%
- EC50 [2]: 0.06 nM

Molecule: CC[C@H](C)[C@H](NC(=O)[C@@H]1CCCN1C(=O)[C@H](CCCCN)NC(=O)[C@H](CC(C)C)NC(=O)[C@H](CC(N)=O)NC(=O)[C@@H](NC(=O)[C@H](CO)NC(=O)[C@H](CO)NC(=O)[C@H](Cc1c[nH]cn1)NC(=O)[C@H](CCCNC(=N)N)NC(=O)[C@H](CC(C)C)NC(=O)[C@H](Cc1ccccc1)NC(=O)[C@H](CC(=O)O)NC(=O)[C@H](C)NC(=O)[C@H](CC(C)C)NC(=O)[C@H](CCCNC(=N)N)NC(=O)[C@H](CCC(N)=O)NC(=O)[C@@H](NC(=O)[C@H](C)NC(=O)[C@H](C)NC(=O)[C@@H](NC(=O)[C@H](CO)NC(=O)[C@H](CC(C)C)NC(=O)[C@H](CCC(N)=O)NC(=O)[C@H](CO)NC(=O)[C@H](C)NC(=O)CC[C@H](NC(=O)CCCCCCCCCCCCCCCCCCC(=O)O)C(=O)O)[C@@H](C)O)[C@@H](C)O)[C@@H](C)O)C(=O)N[C@@H](CC(C)C)C(=O)N1CCC[C@H]1C(=O)N1CCC[C@H]1C(=O)N[C@H](C(=O)N[C@@H](CC(N)=O)C(=O)N[C@H](C(=O)NCC(=O)N[C@@H](CO)C(=O)N[C@@H](CC(N)=O)C(=O)N[C@H](C(=O)N1C[C@H](O)C[C@H]1C(N)=O)[C@@H](C)O)C(C)C)[C@@H](C)O [M49] ({C20 diacid-γGlu}-ASQLSTAATQRLADFLRHSSTNLKPILPPTNVGSNT[Hyp]-NH2)
- Reduction in purity, 10 d [1]: 8.5%
- Relative activity [2]: 163%
- EC50 [2]: 0.08 nM

Molecule: CC[C@H](C)[C@H](NC(=O)[C@@H]1CCCN1C(=O)[C@H](CCCCN)NC(=O)[C@H](CC(C)C)NC(=O)[C@H](CCC(=O)O)NC(=O)[C@H](CCC(=O)O)NC(=O)[C@H](CO)NC(=O)[C@H](CO)NC(=O)[C@H](Cc1c[nH]cn1)NC(=O)[C@H](CCCNC(=N)N)NC(=O)[C@H](CC(C)C)NC(=O)[C@H](Cc1ccccc1)NC(=O)[C@H](CC(=O)O)NC(=O)[C@H](C)NC(=O)[C@H](CC(C)C)NC(=O)[C@H](CCCNC(=N)N)NC(=O)[C@H](CCC(N)=O)NC(=O)[C@@H](NC(=O)[C@H](C)NC(=O)[C@H](C)NC(=O)[C@@H](NC(=O)[C@H](CO)NC(=O)[C@H](CC(C)C)NC(=O)[C@H](CCC(N)=O)NC(=O)[C@H](CO)NC(=O)[C@H](C)NC(=O)CC[C@H](NC(=O)CCCCCCCCCCCCCCCCCCC(=O)O)C(=O)O)[C@@H](C)O)[C@@H](C)O)C(=O)N[C@@H](CC(C)C)C(=O)N1CCC[C@H]1C(=O)N1CCC[C@H]1C(=O)N[C@H](C(=O)N[C@@H](CC(N)=O)C(=O)N[C@H](C(=O)NCC(=O)N[C@@H](CO)C(=O)N[C@@H](CC(N)=O)C(=O)N[C@H](C(=O)N1C[C@H](O)C[C@H]1C(N)=O)[C@@H](C)O)C(C)C)[C@@H](C)O [M42] ({C20 diacid-γGlu}-ASQLSTAATQRLADFLRHSSEELKPILPPTNVGSNT[Hyp]-NH2)
- Reduction in purity, 10 d [1]: 4.8%
- Relative activity [2]: 32%
- EC50 [2]: 0.28 nM

Molecule: CC[C@H](C)[C@H](NC(=O)[C@@H]1CCCN1C(=O)[C@H](CCCCN)NC(=O)[C@H](CC(C)C)NC(=O)[C@H](CC(N)=O)N(C)C(=O)[C@H](CC(N)=O)NC(=O)[C@H](CO)NC(=O)[C@H](CO)NC(=O)[C@H](Cc1c[nH]cn1)NC(=O)[C@H](CCCNC(=N)N)NC(=O)[C@H](CC(C)C)NC(=O)[C@H](Cc1ccccc1)NC(=O)[C@H](CC(=O)O)NC(=O)[C@H](C)NC(=O)[C@H](CC(C)C)NC(=O)[C@H](CCCNC(=N)N)NC(=O)[C@H](CCC(N)=O)NC(=O)[C@@H](NC(=O)[C@H](C)NC(=O)[C@H](C)NC(=O)[C@@H](NC(=O)[C@H](CO)NC(=O)[C@H](CC(C)C)NC(=O)[C@H](CCC(N)=O)NC(=O)[C@H](CO)NC(=O)[C@H](C)NC(=O)CC[C@H](NC(=O)CCCCCCCCCCCCCCCCCCC(=O)O)C(=O)O)[C@@H](C)O)[C@@H](C)O)C(=O)N[C@@H](CC(C)C)C(=O)N1CCC[C@H]1C(=O)N1CCC[C@H]1C(=O)N[C@H](C(=O)N[C@@H](CC(N)=O)C(=O)N[C@H](C(=O)NCC(=O)N[C@@H](CO)C(=O)N[C@@H](CC(N)=O)C(=O)N[C@H](C(=O)N1C[C@H](O)C[C@H]1C(N)=O)[C@@H](C)O)C(C)C)[C@@H](C)O [M44] ({C20 diacid-γGlu}-ASQLSTAATQRLADFLRHSSN[NMeN]LKPILPPTNVGSNT[Hyp]-NH2)
- Reduction in purity, 10 d [1]: 21.09%
- Reduction in purity, 20 d [1]: 37.35%
- Relative activity [2]: 130%
- EC50 [2]: 0.1 nM

B1: M38 (peptide)
peptide: {C16 diacid-γGlu}-ASQLSTAATQRLADFLRHSSNNLKPILPPTNVGSNT[Hyp]-NH2
SMILES: CC[C@H](C)[C@H](NC(=O)[C@@H]1CCCN1C(=O)[C@H](CCCCN)NC(=O)[C@H](CC(C)C)NC(=O)[C@H](CC(N)=O)NC(=O)[C@H](CC(N)=O)NC(=O)[C@H](CO)NC(=O)[C@H](CO)NC(=O)[C@H](Cc1c[nH]cn1)NC(=O)[C@H](CCCNC(=N)N)NC(=O)[C@H](CC(C)C)NC(=O)[C@H](Cc1ccccc1)NC(=O)[C@H](CC(=O)O)NC(=O)[C@H](C)NC(=O)[C@H](CC(C)C)NC(=O)[C@H](CCCNC(=N)N)NC(=O)[C@H](CCC(N)=O)NC(=O)[C@@H](NC(=O)[C@H](C)NC(=O)[C@H](C)NC(=O)[C@@H](NC(=O)[C@H](CO)NC(=O)[C@H](CC(C)C)NC(=O)[C@H](CCC(N)=O)NC(=O)[C@H](CO)NC(=O)[C@H](C)NC(=O)CC[C@H](NC(=O)CCCCCCCCCCCCCCC(=O)O)C(=O)O)[C@@H](C)O)[C@@H](C)O)C(=O)N[C@@H](CC(C)C)C(=O)N1CCC[C@H]1C(=O)N1CCC[C@H]1C(=O)N[C@H](C(=O)N[C@@H](CC(N)=O)C(=O)N[C@H](C(=O)NCC(=O)N[C@@H](CO)C(=O)N[C@@H](CC(N)=O)C(=O)N[C@H](C(=O)N1C[C@H](O)C[C@H]1C(N)=O)[C@@H](C)O)C(C)C)[C@@H](C)O
- EC50 (luciferase assay, amylin receptor/CRE-luc CHO cells) [3]: 0.03 nM
- Relative activity (the EC50 ratio of Cagrilintide to the compound) [3]: 181%
